CCCCCCCCCCCCCCCCCC
Settings	solubility (mole fraction)
in cyclohexane, 281.45 K	0.214
in cyclohexane, 284.35 K	0.265
in cyclohexane, 287.2 K	0.35
in cyclohexane, 290.95 K	0.445
in cyclohexane, 294.8 K	0.576
in cyclohexane, 297.05 K	0.704
in ethanol, 283.05 K	0.0018
in ethanol, 285.75 K	0.0025
in ethanol, 287.7 K	0.0032
in ethanol, 289.25 K	0.0038
in ethanol, 291 K	0.0047
in ethanol, 292.6 K	0.0058
in ethanol, 294.35 K	0.0072
in ethanol, 296.2 K	0.0093
in ethanol, 297.95 K	0.0122
in ethanol, 299.45 K	0.0162
in n-heptane, 276.9 K	0.124
in n-heptane, 279 K	0.151
in n-heptane, 281.4 K	0.183
in n-heptane, 283.7 K	0.225
in n-heptane, 287.6 K	0.314
in n-heptane, 290.15 K	0.393
in n-heptane, 291.9 K	0.458
in n-heptane, 293.65 K	0.524
in n-heptane, 296.4 K	0.647
in n-heptane, 297.65 K	0.733

CCCCCCCCCCCCCCCCCCC
Settings	solubility (mole fraction)
in cyclohexane, 282.25 K	0.201
in cyclohexane, 283.95 K	0.233
in cyclohexane, 286.65 K	0.29
in cyclohexane, 289.65 K	0.359
in cyclohexane, 292.8 K	0.458
in cyclohexane, 295.65 K	0.553
in cyclohexane, 297 K	0.6
in cyclohexane, 301.75 K	0.75
in ethanol, 282.7 K	0.0011
in ethanol, 284.8 K	0.0014
in ethanol, 286 K	0.0016
in ethanol, 287.4 K	0.0019
in ethanol, 288.7 K	0.0022
in ethanol, 289.95 K	0.0025
in ethanol, 290.95 K	0.003
in ethanol, 292.45 K	0.0035
in ethanol, 293.75 K	0.0041
in ethanol, 295.6 K	0.0051
in ethanol, 297.25 K	0.0062
in ethanol, 300.85 K	0.0083
in ethanol, 303.85 K	0.0115
in n-heptane, 278.25 K	0.129
in n-heptane, 279.5 K	0.145
in n-heptane, 280.95 K	0.164
in n-heptane, 282.45 K	0.19
in n-heptane, 284.25 K	0.22
in n-heptane, 286.55 K	0.256
in n-heptane, 288.7 K	0.314
in n-heptane, 290.95 K	0.393
in n-heptane, 293.7 K	0.478
in n-heptane, 296.95 K	0.611
in n-heptane, 302.3 K	0.786
